Test results taken from patent US7652007B2, “Nitrogen-substituted hexahydropyrazino[1,2-A]pyrimidine-4,7-dione derivatives, processes for their preparation and their use as medicaments” (Sanofi-Aventis Deutschland GmbH, priority 2003, dated 2010).

Test system: female NMRI mice
Assay: Anorectic effect: cumulative condensed milk consumption of treated compared with control animals
Type: in vivo
Conditions: oral dose 50 mg/kg by gavage, female NMRI mice after withdrawal of food for 24 hours; for Reduction in the cumulative milk consumption as % of the control: compared with vehicle-treated control animals; for cumulative milk consumption of the treated animals: condensed milk offered 30 minutes after administration, consumption determined for 7 hours
Procedure: The anorectic effect was tested on female NMRI mice. After withdrawal of food for 24 hours, the test product was administered by gavage. The animals were housed singly with free access to drinking water and were offered condensed milk 30 minutes after administration of the product. The condensed milk consumption was determined every half hour for 7 hours, and the general wellbeing of the animals was observed. The measured milk consumption was compared with the vehicle-treated control animals.

Row | Compound | Reduction in the cumulative milk consumption as % of the control | cumulative milk consumption of the treated animals
1 | CC(C)N1CC2N(C(=O)C(NS(C)(=O)=O)CN2S(=O)(=O)c2ccc(Cl)cc2Cl)C(Cc2ccc(Cl)cc2)C1=O (stereo not shown) [Example 9, N-[6-(4-Chlorobenzyl)-1-(2,4-dichlorobenzenesulfonyl)-8-isopropyl-4,7-dioxooctahydropyrazino[1,2-a]pyrimidin-3-yl]methanesulfonamide] | 47 % of the control | 5/2.06 ml
2 | CC(C)N1CC2N(C(=O)C(N(C)C)CN2S(=O)(=O)c2ccc(Cl)cc2Cl)C(Cc2ccc(Cl)cc2)C1=O (stereo not shown) [Example 5, 6-(4-Chlorobenzyl)-1-(2,4-dichlorobenzenesulfonyl)-3-dimethylamino-8-isopropylhexahydropyrazino[1,2-a]pyrimidine-4,7-dione] | 31 % of the control | 5/2.4 ml
